Laboratory results as given in patent publication US12679832B2, “Compounds and their uses as CD38 inhibitors” (Nanjing Immunophage Biotech Co., Ltd., priority 2021, dated 2026).

Biological target: T1, hCD38 Enzyme (Homo sapiens, UniProt P28907)
T1 construct: purchased Sino Biological Inc 10818-H08H
T1 sequence (P28907 43-300 limits assumed): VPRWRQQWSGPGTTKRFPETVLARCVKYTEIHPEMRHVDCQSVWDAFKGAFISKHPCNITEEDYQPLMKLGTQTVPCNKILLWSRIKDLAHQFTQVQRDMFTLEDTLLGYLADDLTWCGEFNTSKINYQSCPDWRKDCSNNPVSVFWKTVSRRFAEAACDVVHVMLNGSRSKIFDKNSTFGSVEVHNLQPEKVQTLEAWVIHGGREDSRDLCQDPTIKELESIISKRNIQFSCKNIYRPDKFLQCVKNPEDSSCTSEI
Assay: CD38 hydrolase enzymatic assay
Format: biochemical
Settings: rhCD38, ε-NAD substrate, 25° C., point reading time 20 mins; read-out: hCD38 Enzyme inhibition IC50
Description: Also, a blank sample was prepared with 50 μl of sucrose buffer and no test compounds.
The dynamic reading was performed at 25° C. with excitation light of 300 nm and emission light of 410 nm on the enzyme marker by contacting the above-prepared rhCD38 enzyme working fluid and the above-prepared solutions of the test compounds disclosed herein or the solution of the control. The readings were recorded for a total of 1 hour, and the data were analyzed with the point reading time of 20 mins.
Fluorescence was recorded by a microplate reader. Individual excel files containing fluorescence data were exported and the results were plotted against various drug concentrations and analyzed in GraphPad Prism 7.0 for concentration curve generation.

SMILES	IC50
C[C@H]1CC[C@H](NC(=O)c2cc(OC3COC3)nc(-n3ccnc3)n2)CC1 [Compound 150]	16 nM
CC(C)(O)c1ccc(NC(=O)c2cc(C(F)(F)F)nc(-n3ccnc3)n2)cc1F [Compound 180]	11 nM
COCCOc1cc(F)cc(NC(=O)c2cc(C(F)(F)F)nc(-n3ccnc3)n2)c1 [Compound 182]	9.6 nM
CO[C@H]1CC[C@H](NC(=O)c2cc(-c3ccnc(C(F)(F)F)c3)nc(-n3ccnc3)n2)CC1 [Compound 184]	28 nM
CO[C@H]1CC[C@H](NC(=O)c2cc(-n3ccnc3)cc(-n3ccnc3)n2)CC1 [compound 1, 4,6-di (1H-imidazol-1-yl)-N-((1r,4r)-4-methoxycyclohexyl)picolinamide]	29 nM
CO[C@H]1CC[C@H](NC(=O)c2cc(-n3ccnc3)cc(Cl)n2)CC1 [compound 2, 6-chloro-4-(1H-imidazol-1-yl)-N-((1r,4r)-4-methoxycyclohexyl)picolinamide]	2710 nM
CO[C@H]1CC[C@H](NC(=O)c2cc(-n3ccnc3)cc(=O)[nH]2)CC1 [compound 3, 4-(1H-imidazol-1-yl)-N-((1r,4r)-4-methoxycyclohexyl)-6-oxo-1.6-dihydropyridine-2-carboxamide]	> 10000 nM
COc1cc(C(=O)N[C@H]2CC[C@H](OC)CC2)nc(-n2ccnc2)c1 [compound 4, 6-(1H-imidazol-1-yl)-4-methoxy-N-((1r,4r)-4-methoxycyclohexyl)picolinamide]	40 nM
CO[C@H]1CC[C@H](NC(=O)c2cc(O)cc(-n3ccnc3)n2)CC1 [compound 5, 4-hydroxy-6-(1H-imidazol-1-yl)-N-((1r,4r)-4-methoxycyclohexyl)picolinamide]	895 nM
CO[C@H]1CC[C@H](NC(=O)c2cc(-c3cncs3)ccc2NC(C)=O)CC1 [compound 6, 2-acetamido-N-((1r,4r)-4-methoxycyclohexyl)-5-(thiazol-5-yl) benzamide]	> 10000 nM
CO[C@H]1CC[C@H](NC(=O)c2cc(-c3cncs3)ccc2N)CC1 [compound 7, 2-amino-N-((1r,4r)-4-methoxycyclohexyl)-5-(thiazol-5-yl) benzamide]	> 10000 nM
CO[C@H]1CC[C@H](NC(=O)c2cccc(-c3cncs3)c2F)CC1 [compound 8, 2-fluoro-N-((1r,4r)-4-methoxycyclohexyl)-3-(thiazol-5-yl)benzamide]	> 10000 nM
CO[C@H]1CC[C@H](NC(=O)c2cc(-n3ccnc3)nnc2N)CC1 [compound 10, 3-amino-6-(1H-imidazol-1-yl)-N-((1r,4r)-4-methoxycyclohexyl)pyridazine-4-carboxamide]	725 nM
CO[C@H]1CC[C@H](NC(=O)c2cccc(-c3cncs3)n2)CC1 [compound 12, N-((1r,4r)-4-methoxycyclohexyl)-6-(thiazol-5-yl)picolinamide]	> 10000 nM
CO[C@H]1CC[C@H](NC(=O)c2cccc(-c3ccno3)n2)CC1 [compound 17, 6-(isoxazol-5-yl)-N-((1r,4r)-4-methoxycyclohexyl)picolinamide]	> 10000 nM
CO[C@H]1CC[C@H](NC(=O)c2cccc(-c3nnco3)n2)CC1 [compound 19, N-((1r,4r)-4-methoxycyclohexyl)-6-(1,3,4-oxadiazol-2-yl) picolinamide]	> 10000 nM
CO[C@H]1CC[C@H](NC(=O)c2ccc(N)c(-n3ccnc3)n2)CC1 [compound 20, 5-amino-6-(1H-imidazol-1-yl)-N-((1r,4r)-4-methoxycyclohexyl)picolinamide]	> 10000 nM
CO[C@H]1CC[C@H](NC(=O)c2cc(-n3ccnc3)nc(N)n2)CC1 [compound 21, 2-amino-6-(1H-imidazol-1-yl)-N-((1r,4r)-4-methoxycyclohexyl)pyrimidine-4-carboxamide]	8 nM
CNc1nc(C(=O)N[C@H]2CC[C@H](OC)CC2)cc(-n2ccnc2)n1 [compound 22, 6-(1H-imidazol-1-yl)-N-((1r,4r)-4-methoxycyclohexyl)-2-(methylamino)pyrimidine-4-carboxamide]	2750 nM
CO[C@H]1CC[C@H](NC(=O)c2cc(N(C)C)nc(-n3ccnc3)n2)CC1 [compound 23, 6-(dimethylamino)-2-(1H-imidazol-1-yl)-N-((1r,4r)-4-methoxycyclohexyl)pyrimidine-4-carboxamide]	45 nM
CNc1cc(C(=O)N[C@H]2CC[C@H](OC)CC2)nc(-n2ccnc2)n1 [compound 24, 2-(1H-imidazol-1-yl)-N-((1r,4r)-4-methoxycyclohexyl)-6-(methylamino)pyrimidine-4-carboxamide]	30 nM
CO[C@H]1CC[C@H](NC(=O)c2cc(N3CCCCC3)nc(-n3ccnc3)n2)CC1 [compound 26, 2-(1H-imidazol-1-yl)-N-((1r,4r)-4-methoxycyclohexyl)-6-(piperidin-1-yl)pyrimidine-4-carboxamide]	46 nM

SMILES	IC50
CO[C@H]1CC[C@H](NC(=O)c2nc(-c3cncs3)cnc2N)CC1 [compound 27, 3-amino-N-((1r,4r)-4-methoxycyclohexyl)-6-(thiazol-5-yl)pyrazine-2-carboxamide]	842 nM
CO[C@H]1CC[C@H](NC(=O)c2cc(-n3ccnc3)cnn2)CC1 [compound 28, 5-(1H-imidazol-1-yl)-N-((1r,4r)-4-methoxycyclohexyl)pyridazine-3-carboxamide]	22500 nM
CO[C@H]1CC[C@H](NC(=O)c2cc(-c3cncs3)cc3cc[nH]c23)CC1 [compound 29, N-((1r,4r)-4-methoxycyclohexyl)-5-(thiazol-5-yl)-1H-indole-7-carboxamide]	25 nM
O=C(NC1CCCCC1)c1cncc(-n2ccnc2)n1 [compound 30, N-cyclohexyl-6-(1H-imidazol-1-yl)pyrazine-2-carboxamide]	42 nM
CC(C)NC(=O)c1cncc(-n2ccnc2)n1 [compound 31, 6-(1H-imidazol-1-yl)-N-isopropylpyrazine-2-carboxamide]	394 nM
O=C(NC1CCOCC1)c1cncc(-n2ccnc2)n1 [compound 32, 6-(1H-imidazol-1-yl)-N-(tetrahydro-2H-pyran-4-yl)pyrazine-2-carboxamide]	84 nM
O=C(NC1CCNCC1)c1cncc(-n2ccnc2)n1 [compound 33, 6-(1H-imidazol-1-yl)-N-(piperidin-4-yl)pyrazine-2-carboxamide]	4080 nM
CC(C)(C)NC(=O)c1cncc(-n2ccnc2)n1 [compound 34, N-(tert-butyl)-6-(1H-imidazol-1-yl)pyrazine-2-carboxamide]	3910 nM
O=C(Nc1ccccc1)c1cncc(-n2ccnc2)n1 [compound 35, 6-(1H-imidazol-1-yl)-N-phenylpyrazine-2-carboxamide]	4 nM
CN1CCC(NC(=O)c2cncc(-n3ccnc3)n2)CC1 [compound 36, 6-(1H-imidazol-1-yl)-N-(1-methylpiperidin-4-yl)pyrazine-2-carboxamide]	9750 nM
O=C(NCC1CCCCC1)c1cncc(-n2ccnc2)n1 [compound 37, N-(cyclohexylmethyl)-6-(1H-imidazol-1-yl)pyrazine-2-carboxamide]	348 nM
O=C(NCc1ccccc1)c1cncc(-n2ccnc2)n1 [compound 38, N-benzyl-6-(1H-imidazol-1-yl)pyrazine-2-carboxamide]	456 nM
CC(NC(=O)c1cncc(-n2ccnc2)n1)C1CCCCC1 (centres unmarked) [compound 39, N-(1-cyclohexylethyl)-6-(1H-imidazol-1-yl)pyrazine-2-carboxamide]	225 nM
CC(=O)N1CCC(NC(=O)c2cncc(-n3ccnc3)n2)CC1 [compound 40, N-(1-acetylpiperidin-4-yl)-6-(1H-imidazol-1-yl)pyrazine-2-carboxamide]	96 nM
CO[C@H]1CC[C@H](NC(=O)c2nc(-n3ccnc3)cnc2N)CC1 [compound 41, 3-amino-6-(1H-imidazol-1-yl)-N-((1r,4r)-4-methoxycyclohexyl) pyrazine-2-carboxamide]	13 nM
Nc1ncc(-n2ccnc2)nc1C(=O)NC1CCCCC1 [compound 42, 3-amino-N-cyclohexyl-6-(1H-imidazol-1-yl)pyrazine-2-carboxamide]	11 nM
CO[C@H]1CC[C@H](NC(=O)c2nc(-n3ccnc3)cnc2N(C)C)CC1 [compound 46, 3-(dimethylamino)-6-(1H-imidazol-1-yl)-N-((1r,4r)-4-methoxycyclohexyl) pyrazine-2-carboxamide]	536 nM
CNc1ncc(-n2ccnc2)nc1C(=O)N[C@H]1CC[C@H](OC)CC1 [compound 47, 6-(1H-imidazol-1-yl)-N-((1r,4r)-4-methoxycyclohexyl)-3-(methylamino)pyrazine-2-carboxamide]	38 nM
O=C(NC1CCCCC1)c1cccc(-n2ccnc2)n1 [compound 49, N-cyclohexyl-6-(1H-imidazol-1-yl)picolinamide]	70 nM
CO[C@H]1CC[C@H](NC(=O)c2cc(-n3ccnc3)cc(C)n2)CC1 [compound 50, 4-(1H-imidazol-1-yl)-N-((1r,4r)-4-methoxycyclohexyl)-6-methylpicolinamide]	> 10000 nM
CO[C@H]1CC[C@H](NC(=O)c2cc(Cl)cc(-n3ccnc3)n2)CC1 [compound 51, 4-chloro-6-(1H-imidazol-1-yl)-N-((1r,4r)-4-methoxycyclohexyl) picolinamide]	9 nM
CO[C@H]1CC[C@H](NC(=O)c2cc(C)cc(-n3ccnc3)n2)CC1 [compound 52, 6-(1H-imidazol-1-yl)-N-((1r,4r)-4-methoxycyclohexyl)-4-methylpicolinamide]	55 nM
